We go through one compound from publication PMC12281424, “A Rac-specific competitive inhibitor of guanine nucleotide binding reduces metastasis in triple-negative breast cancer” (Cell Reports Medicine, 2025).

One test concerns the target ATR/ATRIP(h) (Homo sapiens, UniProt Q13535). Briefly: Kinase Profiler. Format: biochemical.
Another test addresses T1, RAC1 G30S (Homo sapiens, UniProt P63000, G30S).
T1 construct: Full-length RAC1G30S was obtained by directed mutagenesis on the pET-3a-RAC1HisCter plasmid; 6xHis (C); made in house
Briefly: GEF-stimulated nucleotide exchange. Format: biochemical. More on the design: dose or concentration left out as unconfirmed. An excerpt: Figure 4 A41 selectively impairs RAC protein activation (A) Representative surface plasmon resonance (SPR) sensograms of binding of immobilized RHOA or CDC42 with indicated increasing concentrations of A41 (N > 3). (B) Effect of A41 on GEF-stimulated RAC2, RHOG, RHOA, and CDC42 nucleotide exchange. […] Kobs is expressed as mean ± SEM. ∗p < 0.001 vs. control. (C) Effect of A41 on RAC1 G30S activation. […] Data are expressed as mean ± SEM. (D) Immunoblot analysis and associated quantification of RAC-GTP level and total RAC expression in NIH-3T3 fibroblasts expressing RAC wild-type (RAC1 WT) or RAC1 oncomutants (RAC1 P29S and RAC1b) in the absence (Ctrl) and presence of A41 (10 μM). RAC activation was measured as the ratio of RAC-GTP to total RAC and expressed relative to Ctrl condition. Data are presented as mean ± SEM. ∗∗∗p < 0.001 vs. controls.
Full-length RAC1 carrying a 6xHis tag in C-terminus was purified as previously described.[64] […] Specific exchange activity toward RHOA determined by fluorescence kinetics is 0.04 s^−1M^−1.
Nucleotide exchange kinetics were measured by recording the increase in fluorescence following the association of mant-GTP on GDP-bound RHO protein or the decay in fluorescence following the dissociation of mant-GDP pre-loaded onto the RHO protein (λEx = 360 nm, λEm = 440 nm) as previously described.[39] […]

In test [1] the test system is other breast cancer cell lines and other types of cancer cell lines. Briefly: Focus formation (clonogenic) assay. Format: cell-based. The conditions noted are these: 10 μM. On the procedure: Figure 5 A41 decreases growth and invasiveness of TNBC cells in vitro (A) Representative images of RAC-GTP levels (red) in MDA-MB-468 Luc cells in the absence (CTL) and presence of EHT1864, NSC23766, or A41 (1 h at 10 μM) (left). Luciferase (Luc, green) was used to detect the cells. RAC-GTP mean fluorescence intensity was quantified inside the cell area (right) (n = 31–37 cells from 3 independent experiments; ∗p < 0.05, ∗∗∗p < 0.001) (scale bars: 10 μm). […] (C) Quantification of colony number of indicated cancer cell lines in the presence of A41 (10 μM) expressed as the percentage of control in the absence of A41. Results shown are representative of N > 3 independent experiments. (D) Immunoblot analysis and corresponding quantification of AKT and P44/42 expression and phosphorylation (pAKT, p44/42) in MDA-MB-468 Luc cells in the absence (−) and presence of NSC23766 or A41 (1 h at 10^−5 M). Results shown are representative of 3 independent experiments. ∗∗p < 0.01 vs. untreated cells, ^###p < 0.001 vs. NSC23766-treated cells. (E) 3D invasion assay of MDA-MB-468 Luc and cancer-associated fibroblasts (CAFs) and corresponding quantification (scale bars: 200 μm). […]
1000 cells/well from the indicated cancer cell lines were seeded in 6-wells plates and allowed to grow 2 days before treatments. […] The area occupied by the cells was then quantified with ImageJ software. […]

In the next test the target is cKit(h) (Homo sapiens, UniProt P10721). Briefly: Kinase Profiler. Format: biochemical.
In the next test the target is DAPK2(h) (Homo sapiens, UniProt Q9UIK4). Briefly: Kinase Profiler. Format: biochemical.
Another test concerns the target Muscarinic M4 (Homo sapiens, UniProt P08173). Briefly: Safety screen. Format: binding.

Sequence of DAPK2(h) (Q9UIK4 whole entry): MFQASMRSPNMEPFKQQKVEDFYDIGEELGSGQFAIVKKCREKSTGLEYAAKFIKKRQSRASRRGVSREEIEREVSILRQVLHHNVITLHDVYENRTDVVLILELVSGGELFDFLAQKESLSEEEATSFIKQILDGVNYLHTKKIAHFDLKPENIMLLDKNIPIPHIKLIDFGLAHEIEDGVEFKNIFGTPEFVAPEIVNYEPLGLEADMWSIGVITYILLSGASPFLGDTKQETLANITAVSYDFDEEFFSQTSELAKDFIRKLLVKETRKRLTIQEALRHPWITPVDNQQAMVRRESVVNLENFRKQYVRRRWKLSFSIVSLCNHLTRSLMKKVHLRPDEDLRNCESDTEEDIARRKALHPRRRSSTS
Sequence of Muscarinic M4 (P08173 whole entry): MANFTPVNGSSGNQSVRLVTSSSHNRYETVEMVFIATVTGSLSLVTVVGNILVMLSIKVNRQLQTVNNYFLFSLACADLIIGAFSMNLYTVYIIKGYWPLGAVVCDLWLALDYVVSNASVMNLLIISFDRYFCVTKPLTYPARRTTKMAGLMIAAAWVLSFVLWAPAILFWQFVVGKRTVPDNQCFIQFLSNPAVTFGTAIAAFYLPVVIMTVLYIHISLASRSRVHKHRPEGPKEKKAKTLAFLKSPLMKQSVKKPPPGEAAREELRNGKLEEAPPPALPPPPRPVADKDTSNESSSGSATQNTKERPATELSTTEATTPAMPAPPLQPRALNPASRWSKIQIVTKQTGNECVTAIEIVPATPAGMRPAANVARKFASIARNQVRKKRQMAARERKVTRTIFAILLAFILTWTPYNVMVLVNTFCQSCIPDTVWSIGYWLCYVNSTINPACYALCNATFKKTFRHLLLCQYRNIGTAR
Sequence of ATR/ATRIP(h) (Q13535 whole entry): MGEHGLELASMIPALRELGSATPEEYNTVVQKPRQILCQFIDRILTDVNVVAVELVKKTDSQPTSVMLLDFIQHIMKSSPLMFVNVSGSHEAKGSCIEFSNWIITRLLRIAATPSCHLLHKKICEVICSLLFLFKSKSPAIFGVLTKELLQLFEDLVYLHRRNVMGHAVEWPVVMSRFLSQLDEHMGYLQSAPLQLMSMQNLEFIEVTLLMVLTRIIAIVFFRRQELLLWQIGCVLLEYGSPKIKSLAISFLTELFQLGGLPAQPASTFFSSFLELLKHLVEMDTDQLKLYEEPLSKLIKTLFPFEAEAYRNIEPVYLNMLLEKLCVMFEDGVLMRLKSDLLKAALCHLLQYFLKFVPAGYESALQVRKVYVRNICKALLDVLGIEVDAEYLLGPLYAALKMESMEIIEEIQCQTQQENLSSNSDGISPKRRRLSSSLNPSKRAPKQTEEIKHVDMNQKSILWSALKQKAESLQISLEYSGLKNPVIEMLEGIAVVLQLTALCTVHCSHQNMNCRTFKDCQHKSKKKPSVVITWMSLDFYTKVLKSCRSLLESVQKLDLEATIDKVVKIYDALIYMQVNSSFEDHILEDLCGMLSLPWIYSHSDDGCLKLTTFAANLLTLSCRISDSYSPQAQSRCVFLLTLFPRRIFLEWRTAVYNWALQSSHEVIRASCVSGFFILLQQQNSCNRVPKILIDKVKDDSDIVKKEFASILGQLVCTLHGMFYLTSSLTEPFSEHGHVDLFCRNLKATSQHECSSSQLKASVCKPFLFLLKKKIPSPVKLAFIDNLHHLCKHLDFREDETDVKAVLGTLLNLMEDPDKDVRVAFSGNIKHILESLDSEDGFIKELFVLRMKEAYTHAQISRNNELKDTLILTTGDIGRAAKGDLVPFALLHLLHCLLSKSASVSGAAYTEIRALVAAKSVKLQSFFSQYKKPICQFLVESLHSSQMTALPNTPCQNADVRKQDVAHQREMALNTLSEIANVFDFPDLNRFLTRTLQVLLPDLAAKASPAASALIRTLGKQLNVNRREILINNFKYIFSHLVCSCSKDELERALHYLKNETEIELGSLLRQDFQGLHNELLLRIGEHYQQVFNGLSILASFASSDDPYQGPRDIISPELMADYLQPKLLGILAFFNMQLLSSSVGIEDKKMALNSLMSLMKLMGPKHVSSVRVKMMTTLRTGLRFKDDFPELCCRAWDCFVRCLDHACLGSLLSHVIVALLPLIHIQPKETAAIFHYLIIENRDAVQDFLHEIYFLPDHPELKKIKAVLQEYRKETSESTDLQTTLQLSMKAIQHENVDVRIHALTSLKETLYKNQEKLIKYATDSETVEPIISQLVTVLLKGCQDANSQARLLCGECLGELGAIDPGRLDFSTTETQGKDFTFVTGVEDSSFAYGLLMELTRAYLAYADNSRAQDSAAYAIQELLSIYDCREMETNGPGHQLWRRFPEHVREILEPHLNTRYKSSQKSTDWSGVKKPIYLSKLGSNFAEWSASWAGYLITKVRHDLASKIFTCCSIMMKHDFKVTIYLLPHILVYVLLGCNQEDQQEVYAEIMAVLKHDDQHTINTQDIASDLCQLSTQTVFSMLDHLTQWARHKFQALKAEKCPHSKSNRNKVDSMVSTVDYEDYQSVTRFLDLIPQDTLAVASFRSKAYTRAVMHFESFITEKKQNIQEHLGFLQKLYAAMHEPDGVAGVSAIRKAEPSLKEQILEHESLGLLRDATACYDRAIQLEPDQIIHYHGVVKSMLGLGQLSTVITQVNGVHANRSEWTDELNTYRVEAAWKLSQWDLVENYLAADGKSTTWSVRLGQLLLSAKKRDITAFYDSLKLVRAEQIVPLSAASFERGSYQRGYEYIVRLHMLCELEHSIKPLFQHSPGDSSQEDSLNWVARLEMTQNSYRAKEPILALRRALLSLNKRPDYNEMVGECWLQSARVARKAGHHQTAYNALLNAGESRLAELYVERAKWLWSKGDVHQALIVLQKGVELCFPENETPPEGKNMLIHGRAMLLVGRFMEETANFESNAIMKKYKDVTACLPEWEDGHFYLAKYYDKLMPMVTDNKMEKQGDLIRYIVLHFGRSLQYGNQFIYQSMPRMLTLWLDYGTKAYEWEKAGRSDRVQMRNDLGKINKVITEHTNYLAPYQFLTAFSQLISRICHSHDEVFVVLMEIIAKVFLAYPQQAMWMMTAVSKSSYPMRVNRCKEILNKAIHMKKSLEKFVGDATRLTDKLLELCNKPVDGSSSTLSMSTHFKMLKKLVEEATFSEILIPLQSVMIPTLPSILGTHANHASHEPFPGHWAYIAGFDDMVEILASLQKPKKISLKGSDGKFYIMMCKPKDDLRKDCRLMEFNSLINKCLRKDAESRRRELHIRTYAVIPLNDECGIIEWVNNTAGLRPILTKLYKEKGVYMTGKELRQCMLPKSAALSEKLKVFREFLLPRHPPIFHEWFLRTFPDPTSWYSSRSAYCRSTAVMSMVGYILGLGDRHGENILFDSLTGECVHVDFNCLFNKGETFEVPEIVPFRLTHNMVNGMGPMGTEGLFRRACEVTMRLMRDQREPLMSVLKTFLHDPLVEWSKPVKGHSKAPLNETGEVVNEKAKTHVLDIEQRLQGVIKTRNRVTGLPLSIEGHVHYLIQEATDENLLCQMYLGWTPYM
Sequence of ATR/ATRIP(h) (Q8WXE1 whole entry partner): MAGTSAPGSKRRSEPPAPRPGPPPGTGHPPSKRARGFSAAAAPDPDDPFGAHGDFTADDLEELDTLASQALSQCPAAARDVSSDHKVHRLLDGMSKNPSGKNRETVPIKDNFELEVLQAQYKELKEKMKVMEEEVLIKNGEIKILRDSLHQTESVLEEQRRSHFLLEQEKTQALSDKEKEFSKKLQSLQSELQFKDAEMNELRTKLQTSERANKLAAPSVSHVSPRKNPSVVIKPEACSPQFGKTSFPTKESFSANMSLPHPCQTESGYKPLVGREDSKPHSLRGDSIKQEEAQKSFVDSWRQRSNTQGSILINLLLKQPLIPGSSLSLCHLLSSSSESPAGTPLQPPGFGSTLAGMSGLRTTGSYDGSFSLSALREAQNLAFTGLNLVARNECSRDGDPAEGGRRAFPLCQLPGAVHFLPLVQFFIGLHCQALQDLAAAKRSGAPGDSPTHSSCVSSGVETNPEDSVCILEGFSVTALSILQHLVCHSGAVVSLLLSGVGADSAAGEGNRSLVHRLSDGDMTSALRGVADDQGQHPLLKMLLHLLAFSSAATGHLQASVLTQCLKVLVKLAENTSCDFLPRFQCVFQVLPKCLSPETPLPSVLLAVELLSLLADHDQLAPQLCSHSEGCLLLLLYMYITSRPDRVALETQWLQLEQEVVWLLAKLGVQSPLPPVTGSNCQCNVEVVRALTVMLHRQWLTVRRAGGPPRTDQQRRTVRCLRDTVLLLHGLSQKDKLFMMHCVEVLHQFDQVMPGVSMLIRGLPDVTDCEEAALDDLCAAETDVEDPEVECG
Description for ATR/ATRIP(h): The kinase profiler was performed by the company Eurofins (Discovery, Panlab and Cerep).
Description for DAPK2(h): (§1) Blood cell counts, kinase profiler, safety screen, bacterial cytotoxicity, Ames, micronucleus assays were performed by the company Eurofins (France). The kinase profiler was performed by the company Eurofins (Discovery, Panlab and Cerep).
Description for Muscarinic M4: Blood cell counts, kinase profiler, safety screen, bacterial cytotoxicity, Ames, micronucleus assays were performed by the company Eurofins (France).
Description for cKit(h): as §1

As for `COc1ccc(OC)c(NS(=O)(=O)c2ccc(NC(=O)CCSc3ccc(C)cc3)cc2)c1` [Compound A41], the entries for the “Activity(%)” value on ATR/ATRIP(h), at cKit(h) and on DAPK2(h) were 93%, 101% and 99%, respectively. Moreover, on RAC1 G30S, the “TRIO-induced nucleotide exchange on RAC1 G30S” value was “not able to inhibit”. For the same compound, the colony formation result in test [1] is reported as “Inhibitory effect”. For the same compound, at Muscarinic M4, the “% inh.” value was -1%.
